Measured values as given in patent US20190358181A1, “METHODS FOR AUTISM SPECTRUM DISORDER PHARMACOTHERAPY” (priority 2017, published 2019).
Read-outs that look alike come from different tables or passages of the source.

Assay: Suramin plasma pharmacokinetics by LC-MS/MS, two compartment population PK model, pediatric patients
Assay type: in vivo, human
Conditions: for concentration at 1 h: read-out: 1-Hour Plasma Conc; for concentration at 45 days: read-out: 45-Day Plasma Conc; for concentration at 2 days: read-out: 2-Day Plasma Conc
Experimental: For the test dose, 50 mg of suramin hexasodium (Bayer Pharmaceuticals, Inc.) in 5 mL of saline (experimental arm, 5 patients), or 5 mL of saline only (control arm, 5 patients) were given by slow intravenous (IV) push over 3 minutes, followed by a 10 mL flush of saline. One hour after the test dose, vital signs were repeated and a single infusion of either suramin (20 mg/kg, minus the 50 mg test dose, in 50 mL, up to a maximum of 1 gram) or saline (50 mL IV) was given over 30 minutes, followed by a 10 mL flush of saline.
Suramin pharmacokinetics was assessed by serum isolation at the 4 time points immediately before and after the infusion. […] Unexpected and adverse events were recorded as they occurred and graded in severity according to the National Cancer Institute Common Terminology Criteria for Adverse Events v4.03 (CTCAE) scale. Additional pharmacovigilence monitoring included daily scripted phone calls in the first week, then 4 weekly calls until the exit examinations at 6 weeks.
Heparinized plasma, 90 μl was prepared for LC-MS/MS analysis. Ten (10) μl of 50 μM stock of trypan blue was added to achieve an internal standard concentration of 5μM. This was incubated at room temperature for 10 min to permit metabolite interaction with binding proteins, then extracted with 4 volumes (400 μl) of pre-chilled methanol-acetonitrile (50:50) to produce a final concentration of 40:40:20 (methanol:acetonitrile:H2O), and precipitated on ice for 10 minutes. The samples were deproteinated and macromolecules removed by precipitation on crushed ice for 10 min.
The mixture was centrifuged at 16,000g for 10 min at 4° C. and the supernatant was transferred to a new tube and kept at −80° C. for further LC-MS/MS analysis.
Suramin was detected in the prepared samples on an AB SCIEX QTRAP 5500 triple quadrupole mass spectrometer equipped with a Turbo V electrospray ionization (ESI) source, Shimadzu LC-20A UHPLC system, and a PAL CTC autosampler. […] The mobile phase A was water with 20 mM ammonium acetate (NH4OAC) (pH 7) and mobile phase B was methanol with 20 mM NH4OAC (pH 7). […] The flow rate was 400 μl/min. All the samples were kept at 4° C. during analysis. Suramin and trypan blue were detected using MRM scanning mode with the dwell time of 180 ms. […] Absolute concentrations of suramin were determined using a standard curve prepared in plasma to account for matrix effects, and the peak area ratio of suramin to the internal standard trypan blue. […] The ESI source parameters were set as follows: source temperature 500° C.; curtain gas 30; ion source gas 1, 35; ion source gas 2 35; spray voltage −4500 V. Analyst v1.6 was used for data acquisition and analysis.
The small number of PK samples per subject prevented a standard, non-compartmental analysis in individual subjects. The suramin drug concentrations were analyzed using a population PK approach with post-hoc empiric Bayesian estimate of PK parameters in individual subjects. The PK data were fit to a two compartment model using the computer program NONMEM (ICON, Dublin, Ireland). PK parameters were scaled allometrically with volume terms scaled to linear body weight (kg1.0) and clearance terms scaled to weight (kg0.75). Scaled adult suramin parameters of compartmental volumes of distribution and clearance were used as initial parameter estimates and between subject variability only estimated for clearance (CL) and the peripheral volume of distribution (Vd).

[1] = human, plasma, iv, 20 mg/kg, Mean of 5 subjects, 20 mg/kg (558 mg/m^2) IV
[2] = human, plasma, iv, 460 mg, ID 007, 460 mg (529 mg/m^2) IV
[3] = human, plasma, iv, 460 mg, ID 012, 460 mg (529 mg/m^2) IV
[4] = human, plasma, iv, 500 mg, ID 005, 500 mg (526 mg/m^2) IV
[5] = human, plasma, iv, 680 mg, ID 001, 680 mg (591 mg/m^2) IV
[6] = human, plasma, iv, 1000 mg, ID 014, 1000 mg (613 mg/m^2) IV
[7] = human, plasma, Mean of 5 subjects, 20 mg/kg (558 mg/m^2) IV

For `Cc1ccc(C(=O)Nc2ccc(S(=O)(=O)O)c3cc(S(=O)(=O)O)cc(S(=O)(=O)O)c23)cc1NC(=O)c1cccc(NC(=O)Nc2cccc(C(=O)Nc3cc(C(=O)Nc4ccc(S(=O)(=O)O)c5cc(S(=O)(=O)O)cc(S(=O)(=O)O)c45)ccc3C)c2)c1` [Suramin, suramin], the clearance (20 mg/kg IV) was 0.056±0.011 L/hr/m2, the “steady-state volume of distribution” value (20 mg/kg IV) was 22.7±2.6 L/m2 and the suramin levels (before Day 2, all subjects) was “below 100 μM”. The plasma concentrations maintained (between 2 days and 5-6 weeks following the dose) was 1.5 to 15 µM, the half-life (human, plasma, iv, 20 mg/kg, 20 mg/kg IV, read-out: alpha (distribution) phase half-life (converted)) was 0.308 ± 0.0229 days and the concentration at 1 h [1] was 104 µM. The concentration at 45 days [1] was 1.54 µM, the half-life (human, plasma, iv, 20 mg/kg, Mean of 5 subjects, 20 mg/kg (558 mg/m^2) IV, read-out: Plasma Half-Life (terminal elimination phase half-life) (converted)) was 14.7 days and the concentration at 1 h [2] was 87.9 µM. The concentration at 2 days [2] was 11.9 µM, the concentration at 45 days [2] was 1.67 µM and the concentration at 1 h [3] was 119 µM. It also gave a concentration at 2 days [3] of 13.8 µM, a concentration at 45 days [3] of 2.28 µM and a half-life (human, plasma, iv, 460 mg, ID 012, 460 mg (529 mg/m^2) IV, read-out: Plasma Half-Life (converted)) of 16.5 days. The concentration at 1 h [4] was 102 µM, the concentration at 2 days [4] was 10.6 µM and the concentration at 45 days [4] was 1.76 µM. For the same molecule, the half-life (human, plasma, iv, 500 mg, ID 005, 500 mg (526 mg/m^2) IV, read-out: Plasma Half-Life (converted)) was 15 days, the concentration at 1 h [5] was 101 µM and the concentration at 2 days [5] was 13.2 µM. The concentration at 45 days [5] was 0.96 µM, the half-life (human, plasma, iv, 680 mg, ID 001, 680 mg (591 mg/m^2) IV, read-out: Plasma Half-Life (converted)) was 12.6 days and the concentration at 1 h [6] was 111 µM. For the same molecule, the concentration at 2 days [6] was 10.6 µM, the concentration at 45 days [6] was 1.04 µM and the half-life (human, plasma, iv, 1000 mg, ID 014, 1000 mg (613 mg/m^2) IV, read-out: Plasma Half-Life (converted)) was 14.9 days. For the same molecule, the clearance (human, plasma, 20 mg/kg IV, read-out: clearance (converted)) was 1.95 mL/h/kg, the Vd (human, plasma, 20 mg/kg IV, read-out: steady-state volume of distribution) was 0.83 ± 0.014 L/kg and the concentration at 1 h [7] was 104 ± 11.6 µM. It also gave a concentration at 2 days [7] of 12 ± 1.5 µM.
